Source: patent US20090022670A1, “NOVEL COMPOUNDS” (priority 2007, published 2009)
No end group written: not given here.

Key:
[1] = target: T1, rat Orexin-1 receptor (Rattus norvegicus, UniProt P56718); test: FLIPR antagonist affinity at cloned rat OX1 receptor (RBL cells); format: cell-based; conditions: read-out: fpKi
T1 construct: expressed in transfected cells
T1 sequence (P56718 1-416): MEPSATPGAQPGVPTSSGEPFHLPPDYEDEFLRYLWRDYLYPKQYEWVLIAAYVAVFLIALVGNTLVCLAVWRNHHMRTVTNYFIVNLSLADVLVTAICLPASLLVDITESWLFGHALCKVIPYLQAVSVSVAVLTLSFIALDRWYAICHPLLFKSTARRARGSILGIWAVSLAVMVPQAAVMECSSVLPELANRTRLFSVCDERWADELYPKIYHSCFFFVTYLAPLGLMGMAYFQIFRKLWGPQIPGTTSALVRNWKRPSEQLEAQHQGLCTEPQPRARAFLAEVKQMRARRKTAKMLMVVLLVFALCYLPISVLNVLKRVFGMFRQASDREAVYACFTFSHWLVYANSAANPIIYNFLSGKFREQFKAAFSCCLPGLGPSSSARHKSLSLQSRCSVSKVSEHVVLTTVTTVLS
Description: (§1) Determination of Antagonist Affinity at Human Orexin-1 and 2 Receptors Using FLIPR
(§2) Adherent Chinese Hamster Ovary (CHO) cells, stably expressing the recombinant human Orexin-1 or human Orexin-2 receptors or Rat Basophilic Leukaemia Cells (RBL) stably expressing recombinant rat Orexin-1 or rat Orexin-2 receptors were maintained in culture in Alpha Minimum Essential Medium (Gibco/Invitrogen, cat. no.; 22571-020), supplemented with 10% decomplemented foetal bovine serum (Life Technologies, cat. no. 10106-078) and 400 μg/mL Geneticin G418 (Calbiochem, cat. no. 345810). Cells were grown as monolayers under 95%:5% air:CO2 at 37° C. […]
(§3) Compounds of the invention were tested in a final assay concentration range from 1.66×10^−5M to 1.58×10^−11 M. Compounds of the invention were dissolved in dimethylsulfoxide (DMSO) at a stock concentration of 10 mM. […] This final concentration of hOrexin A was equivalent to the calculated EC80 for hOrexinA agonist potency in this test system. […]
(§4) The loaded cells were then incubated for 10 min at 37° C. with test compound. The plates were then placed into a FLIPR™ (Molecular Devices, UK) to monitor cell fluorescence (λex=488 nm, λEM=540 nm) (Sullivan E, Tucker E M, Dale I L. Measurement of [Ca^2+]i using the fluometric imaging plate reader (FLIPR). In: Lambert DG (ed.), Calcium Signaling Protocols. New Jersey: Humana Press, 1999, 125-136). […]

[2] = target: T2, rat Orexin-2 receptor (Rattus norvegicus, UniProt P56719); test: FLIPR antagonist affinity at cloned rat OX2 receptor (RBL cells); format: cell-based; conditions: read-out: fpKi
T2 construct: expressed in transfected cells
T2 sequence (P56719 1-460): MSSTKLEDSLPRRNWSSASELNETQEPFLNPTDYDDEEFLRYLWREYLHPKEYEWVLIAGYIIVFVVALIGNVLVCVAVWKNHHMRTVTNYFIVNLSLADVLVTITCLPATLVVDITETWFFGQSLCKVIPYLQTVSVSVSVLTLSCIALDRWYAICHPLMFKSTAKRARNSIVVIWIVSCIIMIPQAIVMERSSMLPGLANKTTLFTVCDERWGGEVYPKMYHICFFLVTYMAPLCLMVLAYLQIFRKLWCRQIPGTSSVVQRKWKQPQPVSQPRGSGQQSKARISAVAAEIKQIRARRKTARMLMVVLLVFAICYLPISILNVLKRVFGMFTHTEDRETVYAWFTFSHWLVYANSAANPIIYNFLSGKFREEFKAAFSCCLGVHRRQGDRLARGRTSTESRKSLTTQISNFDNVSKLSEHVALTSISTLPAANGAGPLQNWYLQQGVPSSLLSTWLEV
Description: as §1, §2, §3, §4

[3] = test system: rats; conditions: cited from earlier work
[4] = test system: rats; conditions: cited from earlier work; remark: listed apart in the source
[5] = test system: freely-feeding rats; conditions: central administration, 4 hour time period; cited from earlier work
[6] = test system: rats; conditions: central administration at the onset of the normal sleep period; cited from earlier work

Cc1nc(C(=O)N2CCCC[C@H]2Cc2cn3cc(F)cc(C)c3n2)c(-c2ccccc2)s1 [Example 31, 6-fluoro-8-methyl-2-({(2S)-1-[(2-methyl-5-phenyl-1,3-thiazol-4-yl)carbonyl]-2-piperidinyl}methyl)imidazo[1,2-a]pyridine]
Ki [1]: 1 to 5.01 nM | Ki [2]: 0.316 to 1 nM

Cc1nc2ccc(NC(=O)Nc3ccnc4cccnc34)cc2o1 [SB334867]
hedonic eating [3]: potently reduced | high-fat pellet self-administration [4]: attenuated

Cc1nc(C(=O)N2CCCC[C@H]2Cc2cn3cccc(F)c3n2)c(-c2ccccc2)s1 [Example 13, 8-fluoro-2-({(2S)-1-[(2-methyl-5-phenyl-1,3-thiazol-4-yl)carbonyl]-2-piperidinyl}methyl)imidazo[1,2-a]pyridine]
Ki [1]: 1 to 5.01 nM | Ki [2]: 0.316 to 1 nM

orexin-A: ligand for the orexin-1 receptor; an agonist of the orexin receptors (QPLPDCCRQKTCSCRLYELLHGAGNHAAGILTL; ends and bridges not checked; cysteine pairing not given here; UniProt O43612 34-66, looked up)
increase of food intake over control rats receiving vehicle [5]: approximately four-fold | arousal [6]: dose-related increase
